According to patent publication US4156724A, “N-acylamino-alpha-arylacetamido cephalosporins and antibacterial compositions and methods containing them” (Sumitomo Chemical Company, Limited, priority 1974, dated 1979):
≈ marks a conversion by molar mass, not a printed value.

Legend:
Format in all cases: cell-based
[1] = tested on: Staphylococcus aureus 209 P; test: Minimum Inhibitory Concentration, Staphylococcus aureus 209 P; conditions: Staphylococcus aureus 209 P; for MIC: read-out: Minimum Inhibitory Concentration
Method: (§1) anti-microbial activity tests were carried out on the compounds obtained in the Examples.

[2] = tested on: Staphylococcus aureus FS 289; test: Minimum Inhibitory Concentration, Staphylococcus aureus FS 289; conditions: Staphylococcus aureus FS 289, strain resistant to penicillin; for MIC: FS289, read-out: Minimum Inhibitory Concentration
Method: as §1
*Staphylococcus aureus FS 289: strain resistant to penicillin

[3] = tested on: Escherichia coli NIHJ; test: Minimum Inhibitory Concentration, Escherichia coli NIHJ; conditions: Escherichia coli NIHJ; for MIC: read-out: Minimum Inhibitory Concentration
Method: as §1

[4] = tested on: Klebsiella pneumoniae 602; test: Minimum Inhibitory Concentration, Klebsiella pneumoniae 602; conditions: for MIC: Klebsiella pneumoniae, 602, Klebsiella pneumoniae 602, read-out: Minimum Inhibitory Concentration
Method: as §1

[5] = tested on: Proteus vulgaris HX 19; test: Minimum Inhibitory Concentration, Proteus vulgaris HX 19; conditions: Proteus vulgaris HX 19; for MIC: HX19, read-out: Minimum Inhibitory Concentration
Method: as §1

[6] = tested on: Pseudomonas aeruginosa 104; test: Minimum Inhibitory Concentration, Pseudomonas aeruginosa 104; conditions: Pseudomonas aeruginosa 104; for MIC: read-out: Minimum Inhibitory Concentration
Method: as §1

[7] = tested on: Serratia No. 72; test: Minimum Inhibitory Concentration, Serratia No. 72
Method: as §1

[8] = tested on: Enterobacter aerogeneus No. 75; test: Minimum Inhibitory Concentration, Enterobacter aerogeneus No. 75; conditions: Enterobacter aerogeneus No. 75; for MIC: read-out: Minimum Inhibitory Concentration
Method: as §1

Structure (SMILES) | MIC [1] | MIC [2] | MIC [3] | MIC [4] | MIC [5] | MIC [6] | MIC [7] | MIC [8] | Minimum Inhibitory Concentration [1] | Minimum Inhibitory Concentration [2] | Minimum Inhibitory Concentration [3] | Minimum Inhibitory Concentration ([4]; Klebsiella pneumoniae 602) | Minimum Inhibitory Concentration [5] | Minimum Inhibitory Concentration [6] | Minimum Inhibitory Concentration [7] | Minimum Inhibitory Concentration [8]
Cc1nnc(SCC2=C(C(=O)O)N3C(=O)C(NC(=O)[C@H](NC(=O)c4cnc5nc(C)c(C)nc5c4O)c4ccc(O)cc4)C3SC2)s1 (stereo partly drawn) [Example 148] | 1.56 µg/mL (≈ 2.25 µM) | 12.5 µg/mL (≈ 18 µM) | 3.13 µg/mL (≈ 4.51 µM) | 3.13 µg/mL (≈ 4.51 µM) | 1.56 µg/mL (≈ 2.25 µM) | 3.13 µg/mL (≈ 4.51 µM) | 25 µg/mL (≈ 36 µM) | 6.25 µg/mL (≈ 9 µM) |  |  |  |  |  |  |  | 
CSc1ccc2ncc(C(=O)N[C@@H](C(=O)N[C@@H]3C(=O)N4C(C(=O)O)=C(COC(C)=O)CS[C@H]34)c3cccc(NC(N)=O)c3)c(O)c2n1 [Example 34] | 0.78 µg/mL (≈ 1.14 µM) | 6.25 µg/mL (≈ 9.17 µM) | 3.13 µg/mL (≈ 4.59 µM) | 3.13 µg/mL (≈ 4.59 µM) | 0.78 µg/mL (≈ 1.14 µM) | 6.25 µg/mL (≈ 9.17 µM) | 50 µg/mL (≈ 73.3 µM) | 12.5 µg/mL (≈ 18.3 µM) |  |  |  |  |  |  |  | 
COc1ccc2ncc(C(=O)NC(C(=O)NC3C(=O)N4C(C(=O)O)=C(CSc5nnc(CO)s5)CSC34)c3ccc(O)cc3)c(O)c2n1 (stereo not drawn) [Example 165] | 0.78 µg/mL (≈ 1.1 µM) | 6.25 µg/mL (≈ 8.78 µM) | 3.13 µg/mL (≈ 4.4 µM) | 3.13 µg/mL (≈ 4.4 µM) | 0.2 µg/mL (≈ 0.281 µM) | 3.13 µg/mL (≈ 4.4 µM) | 12.5 µg/mL (≈ 17.6 µM) | 6.25 µg/mL (≈ 8.78 µM) |  |  |  |  |  |  |  | 
O=C(O)C1=C(CSc2ccc(O)nn2)CSC2C(NC(=O)C(NC(=O)c3cnccc3O)c3ccc(CO)cc3)C(=O)N12 (stereo not drawn) [Example 111] | 0.78 µg/mL (≈ 1.25 µM) | 6.25 µg/mL (≈ 10 µM) | 12.5 µg/mL (≈ 20 µM) | 6.25 µg/mL (≈ 10 µM) | 0.39 µg/mL (≈ 0.624 µM) | 12.5 µg/mL (≈ 20 µM) | 100 µg/mL (≈ 160 µM) | 12.5 µg/mL (≈ 20 µM) |  |  |  |  |  |  |  | 
CC(=O)OCC1=C(C(=O)[O-])N2C(=O)C(NC(=O)C(NC(=O)c3cnc4cccnc4c3O)c3ccc(O)c(F)c3)C2SC1.[Na+] (stereo not drawn) [Example 145] |  |  |  |  |  |  |  |  | 0.78 µg/mL | 6.25 µg/mL | 3.13 µg/mL | 3.13 µg/mL | 0.39 µg/mL | 6.25 µg/mL | 100 µg/mL | 12.5 µg/mL
CC(=O)OCC1=C(C(=O)O)N2C(=O)C(NC(=O)C(NC(=O)c3cnccc3O)c3cccc(O)c3)C2SC1 (stereo not drawn) [Example 114] | 0.39 µg/mL (≈ 0.719 µM) | 6.25 µg/mL (≈ 11.5 µM) | 12.5 µg/mL (≈ 23 µM) | 12.5 µg/mL (≈ 23 µM) | 0.39 µg/mL (≈ 0.719 µM) | 6.25 µg/mL (≈ 11.5 µM) | > 200 µg/mL | 25 µg/mL (≈ 46.1 µM) |  |  |  |  |  |  |  | 

The next lines start with results.

MIC [1] | MIC [2] | MIC [3] | MIC [4] | MIC [5] | MIC [6] | MIC [7] | MIC [8] | Structure (SMILES) | Minimum Inhibitory Concentration [1] | Minimum Inhibitory Concentration [2] | Minimum Inhibitory Concentration [3] | Minimum Inhibitory Concentration ([4]; Klebsiella pneumoniae 602) | Minimum Inhibitory Concentration [5] | Minimum Inhibitory Concentration [6] | Minimum Inhibitory Concentration [7] | Minimum Inhibitory Concentration [8]
0.39 µg/mL (≈ 0.651 µM) | 6.25 µg/mL (≈ 10.4 µM) | 6.25 µg/mL (≈ 10.4 µM) | 12.5 µg/mL (≈ 20.9 µM) | 0.2 µg/mL (≈ 0.334 µM) | 6.25 µg/mL (≈ 10.4 µM) | 100 µg/mL (≈ 167 µM) | 12.5 µg/mL (≈ 20.9 µM) | Cn1nnnc1SCC1=C(C(=O)O)N2C(=O)C(NC(=O)[C@H](NC(=O)c3cnccc3O)c3ccc(O)cc3)C2SC1 (stereo partly drawn) [Example 126, 7-[D-α-(4-Hydroxypyridine-3-carbonamido)-α-p-hydroxyphenylacetamido]-3-(1-methyltetrazol-5-yl)thiomethyl-3-cephem-4-carboxylic acid] |  |  |  |  |  |  |  | 
0.39 µg/mL (≈ 0.616 µM) | 6.25 µg/mL (≈ 9.87 µM) | 6.25 µg/mL (≈ 9.87 µM) | 6.25 µg/mL (≈ 9.87 µM) | 0.39 µg/mL (≈ 0.616 µM) | 12.5 µg/mL (≈ 19.7 µM) | 50 µg/mL (≈ 79 µM) | 12.5 µg/mL (≈ 19.7 µM) | Cn1nnnc1SCC1=C(C(=O)O)N2C(=O)C(NC(=O)C(NC(=O)c3cnccc3O)c3ccc(O)c(Cl)c3)C2SC1 (stereo not drawn) [Example 179] |  |  |  |  |  |  |  | 
0.78 µg/mL (≈ 1.2 µM) | 3.13 µg/mL (≈ 4.82 µM) | 1.56 µg/mL (≈ 2.4 µM) | 0.78 µg/mL (≈ 1.2 µM) | 0.1 µg/mL (≈ 0.154 µM) | 3.13 µg/mL (≈ 4.82 µM) | 12.5 µg/mL (≈ 19.2 µM) | 3.13 µg/mL (≈ 4.82 µM) | Cn1nnnc1SCC1=C(C(=O)O)N2C(=O)C(NC(=O)[C@H](NC(=O)c3cnc4cccnc4c3O)c3ccc(O)cc3)C2SC1 (stereo partly drawn) [Example 131] |  |  |  |  |  |  |  | 
0.78 µg/mL (≈ 1.2 µM) | 6.25 µg/mL (≈ 9.62 µM) | 3.13 µg/mL (≈ 4.82 µM) | 6.25 µg/mL (≈ 9.62 µM) | 0.2 µg/mL (≈ 0.308 µM) | 6.25 µg/mL (≈ 9.62 µM) | 50 µg/mL (≈ 77 µM) | 12.5 µg/mL (≈ 19.2 µM) | Cn1nnnc1SCC1=C(C(=O)O)N2C(=O)C(NC(=O)C(NC(=O)c3cnc4cncnc4c3O)c3cccc(N)c3)C2SC1 (stereo not drawn) [Example 72] |  |  |  |  |  |  |  | 
1.56 µg/mL (≈ 2.29 µM) | 6.25 µg/mL (≈ 9.19 µM) | 3.13 µg/mL (≈ 4.6 µM) | 1.56 µg/mL (≈ 2.29 µM) | 0.2 µg/mL (≈ 0.294 µM) | 6.25 µg/mL (≈ 9.19 µM) | 12.5 µg/mL (≈ 18.4 µM) | 6.25 µg/mL (≈ 9.19 µM) | Cc1nnc(SCC2=C(C(=O)O)N3C(=O)C(NC(=O)C(NC(=O)c4cnc5cccnc5c4O)c4ccc(CO)cc4)C3SC2)s1 (stereo not drawn) [Example 96] |  |  |  |  |  |  |  | 
0.78 µg/mL (≈ 1.2 µM) | 3.13 µg/mL (≈ 4.82 µM) | 3.13 µg/mL (≈ 4.82 µM) | 1.56 µg/mL (≈ 2.4 µM) | 0.1 µg/mL (≈ 0.154 µM) | 3.13 µg/mL (≈ 4.82 µM) | 25 µg/mL (≈ 38.5 µM) | 3.13 µg/mL (≈ 4.82 µM) | Cn1nnc(SCC2=C(C(=O)O)N3C(=O)C(NC(=O)[C@H](NC(=O)c4cnc5cccnc5c4O)c4ccc(O)cc4)C3SC2)n1 (stereo partly drawn) [Example 133] |  |  |  |  |  |  |  | 
